# Data published in patent US11046649B2, “Compounds useful as inhibitors of indoleamine 2,3-dioxygenase and/or tryptophan dioxygenase” (Board of Regents, The University of Texas System, priority 2018, dated 2021).
# Target: T1, IDO1 (Homo sapiens, UniProt P14902)
# T1 construct: endogenous in cells; host or cells: HeLa cells (ATCC), IDO1 induced with 10 ng/mL IFNgamma
# Experiment: IDO1 cell-based assay
# Conditions: HeLa cells, 10 ng/mL IFNgamma, 24 hours with test compound; N-Formyl Kynurenine and L-tryptophan quantified by RFMS
# T1 sequence (P14902 whole entry): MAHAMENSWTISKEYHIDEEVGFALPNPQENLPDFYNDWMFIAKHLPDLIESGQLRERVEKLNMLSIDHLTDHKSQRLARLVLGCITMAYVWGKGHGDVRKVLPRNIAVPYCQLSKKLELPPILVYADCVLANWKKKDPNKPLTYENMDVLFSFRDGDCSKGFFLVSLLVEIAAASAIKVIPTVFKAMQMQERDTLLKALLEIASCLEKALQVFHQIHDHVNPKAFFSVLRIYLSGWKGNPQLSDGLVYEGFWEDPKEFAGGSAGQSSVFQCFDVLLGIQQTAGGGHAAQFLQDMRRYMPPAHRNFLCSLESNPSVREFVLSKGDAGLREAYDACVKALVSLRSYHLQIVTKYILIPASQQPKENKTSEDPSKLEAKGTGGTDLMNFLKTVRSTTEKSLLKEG
row,Compound,IC50 [nM]
1,"CC(C(=O)Nc1ccn(CC(F)(F)F)n1)[C@H]1[C@@H]2C[C@@H](Oc3ccnc4ccc(F)cc34)C[C@@H]21 (stereo partly drawn) [Example 105, 2-((1R,3s,5S,6r)-3-((6-fluoroquinolin-4-yl)oxy)-bicyclo[3.1.0]hexan-6-yl)-N-(1-(2,2,2-trifluoroethyl)-1H-pyrazol-3-yl)-propanamide]",17.9
2,"N-(5-(1H-1,2,4-triazol-1- yl)pyridin-2-yl)-2- ((1R,3s,5S,6r)-3-((6- fluoroquinolin-4-yl)- oxy)bicyclo[3.1.0]hexan-6- yl)propanamide [Example 96]",7.1
3,"2-((1R,3s,5S,6r)-3-((6- fluoroquinolin-4-yl)oxy)- bicyclo[3.1.0]hexan-6-yl)- N-(1-(trifluoromethyl)-1H- pyrazol-3-yl)propanamide [Example 102]",3.7
4,"CC(=O)NC12CC(NC(=O)C(C)[C@H]3[C@@H]4C[C@@H](Oc5ccnc6ccc(F)cc56)C[C@@H]43)(C1)C2 (stereo partly drawn) [Example 133, N-(3-acetamidobicyclo-[1.1.1]pentan-1-yl)-2-((1R,3s,5S,6r)-3-((6-fluoro-quinolin-4-yl)oxy)bicyclo-[3.1.0]hexan-6-yl)-propanamide]",420
5,"N-(5-cyanopyridin-2-yl)-2- ((1R,3s,5S,6r)-3-((6- fluoroquinolin-4-yl)oxy)- bicyclo[3.1.0]hexan-6-yl)- propanamide [Example 58]",2
6,CCC(c1nc2cc(C(F)(F)F)ccc2[nH]1)[C@H]1[C@@H]2C[C@@H](Oc3ccnc4ccc(F)cc34)C[C@@H]21 (stereo partly drawn) [Example 12],0.85
7,"CC(C(=O)NC1CCC(F)(F)CC1)[C@H]1[C@@H]2C[C@@H](n3cnc4cc(F)c(F)cc43)C[C@@H]21 (stereo partly drawn) [Example 43, 2-((1R,3s,5S,6r)-3-(5,6-difluoro-1H-benzo[d]-imidazol-1-yl)bicyclo-[3.1.0]hexan-6-yl)-N-(4,4-difluorocyclohexyl)-propanamide]",192
8,"CC(C(=O)Nc1ccc(C2CC2)nc1)[C@H]1[C@@H]2C[C@@H](n3cnc4cc(F)c(F)cc43)C[C@@H]21 (stereo partly drawn) [Example 56, N-(6-cyclopropylpyridin-3-yl)-2-((1R,3s,5S,6r)-3-(5,6-difluoro-1H-benzo[d]-imidazol-1-yl)bicyclo-[3.1.0]hexan-6-yl)-propanamide]",5.7
9,"Cc1ncc(-c2ccc(NC(=O)[C@@H](C)[C@H]3[C@@H]4C[C@@H](n5cnc6cc(F)c(F)cc65)C[C@@H]43)cc2)cn1 [Example 66, (S)-2-((1R,3R,5S,6r)-3-(5,6-difluoro-1H-benzo[d]-imidazol-1-yl)bicyclo-[3.1.0]hexan-6-yl)-N-(4-(2-methylpyrimidin-5-yl)-phenyl)propanamide]",1140
10,"O=C(O)C(C1CC1)[C@H]1[C@@H]2C[C@@H](Oc3ccnc4ccc(F)cc34)C[C@@H]21 (stereo partly drawn) [Example 127, 2-cyclopropyl-2-((1R,3s,5S,6r)-3-((6-fluoroquinolin-4-yl)oxy)-bicyclo[3.1.0]hexan-6-yl)acetic acid]",6310
11,"Cc1nc(NC(=O)C(C)[C@H]2[C@@H]3C[C@@H](n4cnc5cc(F)c(F)cc54)C[C@@H]32)ccc1C#N (stereo partly drawn) [Example 46, (R)-N-(5-cyano-6-methyl-pyridin-2-yl)-2-((1R,3s,5S,6r)-3-(5,6-difluoro-1H-benzo[d]-imidazol-1-yl)bicyclo-[3.1.0]hexan-6-yl)-propanamide]",41.3
12,"COCC12CC(NC(=O)C(C)[C@H]3[C@@H]4C[C@@H](Oc5ccnc6ccc(F)cc56)C[C@@H]43)(C1)C2 (stereo partly drawn) [Example 9, 2-((1R,3s,5S,6r)-3-((6-fluoroquinolin-4-yl)oxy)bicyclo[3.1.0]hexan-6-yl)-N-(3-(methoxymethyl)bicyclo[1.1.1]pentan-1-yl)propanamide]",55
13,"CCC(C(=O)Nc1ccc(C(N)=O)cn1)[C@H]1[C@@H]2C[C@@H](Oc3ccnc4ccc(F)cc34)C[C@@H]21 (stereo partly drawn) [Example 118, 6-(2-((1R,3s,5S,6r)-3-((6-fluoroquinolin-4-yl)oxy)-bicyclo[3.1.0]hexan-6-yl)-butanamido)nicotinamide]",21.3
14,"CC(C(=O)Nc1cc2ccccn2n1)[C@H]1[C@@H]2C[C@@H](Oc3ccnc4ccc(F)cc34)C[C@@H]21 (stereo partly drawn) [Example 87, 2-((1R,3s,5S,6r)-3-((6-fluoroquinolin-4-yl)oxy)-bicyclo[3.1.0]hexan-6-yl)-N-(pyrazolo[1,5-a]pyridin-2-yl)propanamide]",3
15,"CC(C(=O)Nc1ccc(C2CC2)nc1)[C@H]1[C@@H]2C[C@@H](Oc3ccnc4ccc(F)cc34)C[C@@H]21 (stereo partly drawn) [Example 63, N-(6-cyclopropylpyridin-3-yl)-2-((1R,3s,5S,6r)-3-((6-fluoroquinolin-4-yl)oxy)-bicyclo[3.1.0]hexan-6-yl)propanamide]",1.4
16,"CC(C(=O)Nc1ccn(C)n1)[C@H]1[C@@H]2C[C@@H](n3cnc4cc(F)c(F)cc43)C[C@@H]21 (stereo partly drawn) [Example 34, 2-((1R,3s,5S,6r)-3-(5,6-difluoro-1H-benzo[d]-imidazol-1-yl)bicyclo-[3.1.0]hexan-6-yl)-N-(1-methyl-1H-pyrazol-3-yl)-propanamide]",179
17,CC(C(=O)Nc1ccc(C(F)(F)F)nc1)[C@H]1[C@@H]2C[C@@H](Oc3ccnc4ccc(F)cc34)C[C@@H]21 (stereo partly drawn) [Example 60],4.7
18,"CC(C(=O)NC12CC(N)(C1)C2)[C@H]1[C@@H]2C[C@@H](Oc3ccnc4ccc(F)cc34)C[C@@H]21 (stereo partly drawn) [Example 11, N-(3-aminobicyclo[1.1.1]pentan-1-yl)-2-((1R,3s,5S,6r)-3-((6-fluoroquinolin-4-yl)oxy)-bicyclo-[3.1.0]hexan-6-yl)propanamide]",1600
19,"Cc1nnc(-c2ccc(NC(=O)[C@@H](C)[C@H]3[C@@H]4C[C@@H](n5cnc6cc(F)c(F)cc65)C[C@@H]43)cc2)s1 [Example 70, (S)-2-((1R,3R,5S,6r)-3-(5,6-difluoro-1H-benzo[d]-imidazol-1-yl)bicyclo-[3.1.0]hexan-6-yl)-N-(4-(5-methyl-1,3,4-thiadiazol-2-yl)phenyl)propanamide]",238
20,"CC(C(=O)NC1CCN(C(=O)OC(C)(C)C)CC1)[C@H]1[C@@H]2C[C@@H](Oc3ccnc4ccc(F)cc34)C[C@@H]21 (stereo partly drawn) [Example 94, tert-butyl 4-(2-((1R,3s,5S,6r)-3-((6-fluoroquinolin-4-yl)oxy)-bicyclo[3.1.0]hexan-6-yl)-propanamido)piperidine-1-carboxylate]",1090
21,"2-((1R,3s,5S,6r)-3-((6- fluoroquinolin-4-yl)oxy)- bicyclo[3.1.0]hexan-6-yl)- N-(5-(4-methyl-4H-1,2,4- triazol-3-yl)pyridin-2-yl)- propanamide [Example 97]",818
22,"CCC(C(=O)Nc1ccc(C#N)nn1)[C@H]1[C@@H]2C[C@@H](Oc3ccnc4ccc(F)cc34)C[C@@H]21 (stereo partly drawn) [Example 149, N-(6-cyanopyridazin-3-yl)-2-((1R,3s,5S,6r)-3-((6-fluoroquinolin-4-yl)oxy)-bicyclo[3.1.0]hexan-6-yl)butanamide]",5.49
23,"CC(C(=O)NC12CC(C(F)(F)F)(C1)C2)[C@H]1[C@@H]2C[C@@H](n3cnc4cc(F)c(F)cc43)C[C@@H]21 (stereo partly drawn) [Example 24, 2-((1R,3s,5S,6r)-3-(5,6-difluoro-1H-benzo[d]-imidazol-1-yl)bicyclo-[3.1.0]hexan-6-yl)-N-(3-(trifluoromethyl)bicyclo [1.1.1]pentan-1-yl)-propanamide]",117
24,"Cc1cnc(NC(=O)C(C)[C@H]2[C@@H]3C[C@@H](n4cnc5cc(F)c(F)cc54)C[C@@H]32)cn1 (stereo partly drawn) [Example 53, 2-((1R,3s,5S,6r)-3-(5,6-difluoro-1H-benzo[d]-imidazol-1-yl)bicyclo-[3.1.0]hexan-6-yl)-N-(5-methylpyrazin-2-yl)-propanamide]",10.5
25,"CC(C(=O)Nc1ccc(Cl)cn1)[C@H]1[C@@H]2C[C@@H](n3cnc4cc(F)c(F)cc43)C[C@@H]21 (stereo partly drawn) [Example 22, N-(5-chloropyridin-2-yl)-2-((1R,3s,5S,6r)-3-(5,6-difluoro-1H-benzo[d]-imidazol-1-yl)bicyclo-[3.1.0]hexan-6-yl)-propanamide]",2.5
26,"CC(C(=O)Nc1cnn(C(F)F)c1)[C@H]1[C@@H]2C[C@@H](n3cnc4cc(F)c(F)cc43)C[C@@H]21 (stereo partly drawn) [Example 47, 2-((1R,3s,5S,6r)-3-(5,6-difluoro-1H-benzo[d]-imidazol-1-yl)bicyclo-[3.1.0]hexan-6-yl)-N-(1-(difluoromethyl)-1H-pyrazol-4-yl)propanamide]",14
27,"CC(C(=O)Nc1ccc(C(F)(F)F)cn1)[C@H]1[C@@H]2C[C@@H](n3cnc4cc(F)c(F)cc43)C[C@@H]21 (stereo partly drawn) [Example 18, 2-((1R,3s,5S,6r)-3-(5,6-difluoro-1H-benzo[d]-imidazol-1-yl)bicyclo-[3.1.0]hexan-6-yl)-N-(5-(trifluoromethyl)pyridin-2-yl)propanamide]",4.8
28,"CC(C)n1cc(-c2ccc(NC(=O)[C@@H](C)[C@H]3[C@@H]4C[C@@H](n5cnc6cc(F)c(F)cc65)C[C@@H]43)cc2)cn1 [Example 91, (S)-2-((1R,3R,5S,6r)-3-(5,6-difluoro-1H-benzo[d]-imidazol-1-yl)bicyclo-[3.1.0]hexan-6-yl)-N-(4-(1-isopropyl-1H-pyrazol-4-yl)phenyl)propanamide]",504
29,"CC(C(=O)NC1CC(F)C1)[C@H]1[C@@H]2C[C@@H](n3cnc4cc(F)c(F)cc43)C[C@@H]21 (stereo partly drawn) [Example 25, 2-((1R,3s,5S,6r)-3-(5,6-difluoro-1H-benzo[d]-imidazol-1-yl)bicyclo-[3.1.0]hexan-6-yl)-N-(3-fluorocyclobutyl)-propanamide]",3420
30,"CC(C(=O)NC12CC(c3ccc(F)cc3)(C1)C2)[C@H]1[C@@H]2C[C@@H](n3cnc4cc(F)c(F)cc43)C[C@@H]21 (stereo partly drawn) [Example 39, 2-((1R,3s,5S,6r)-3-(5,6-difluoro-1H-benzo[d]-imidazol-1-yl)bicyclo-[3.1.0]hexan-6-yl)-N-(3-(4-fluorophenyl)bicyclo-[1.1.1]pentan-1-yl)-propanamide]",12.9
